{"source": "patent US6503525B1", "about": "“Absorbent article which maintains or improves skin health” (Kimberly-Clark Worldwide, Inc., priority 1999, dated 2003)", "key": {"[1]": {"test_system": "proteolytic activity of fecal extract", "settings": "0-1 mM emulsions, pH 8.0, room temperature", "experimental": "The supernatant was filtered through 0.22 micron cellulose acetate filters and stored at −80° C. until use."}, "[2]": {"test_system": "EpiDerm™ 201 synthetic skin (keratinocytes), interleukin-1 alpha release", "source_text": "The synthetic skin, EpiDerm™ 201 (MatTek Corporation, Ashland, Mass.) contains keratinocytes that release interleukin-1 alpha (IL-1 alpha) when subjected to proteases in the fecal extract. When the IL-1 alpha was released, it diffused from the skin into the fluid below the EpiDerm™. Samples of this fluid were taken and analyzed for the presence of the IL-1 alpha. Higher levels of IL-1 alpha was indicative of greater skin irritation.\nPrior to application onto the EpiDerm™, the fecal extract (10.4 μL) was pre-incubated for 30 minutes at room temperature with 250 mM zinc sulfate heptahydrate in water (2.6 μL). Water only and fecal extract only samples served as controls. After application of the samples to the EpiDerm™, 25 μL aliquots were removed from the underlying media at 8, 12, and 24 hours to test for the presence of the IL-1 alpha. The aliquots were directly added to a 1.5 mL micro-centrifuge tube containing 225 μL of filtered-sterilized 20 mM Tris-HCl, pH 8.0, 1% BSA buffer and stored at −80° C. After all samples were collected, IL-1 alpha levels were quantified using the R&D Systems Interleukin-1 alpha Quantikine Kit (R&D Systems, Minneapolis, Minn.)."}, "[3]": {"test_system": "proteolytic activity of infant urine", "settings": "0-50 mM, pH 8.0, 37° C.", "procedure": "The proteolytic activity of infant urine was measured using fluorescently-labeled casein.\nTwo (2) infant urine (100 μL) samples were added to wells of a 96 white plate (Dynex) containing 80 μL of 12.5 μg/ml solution of a fluorescent dye-labeled casein substrate (EnzChek Protease Assay Kit (E-6639)) in 100 mM Tris-HCl, pH 8.0, and allowed to incubate for 60 minutes at 37° C. […] Reaction of the infant urine with the casein substrate cleaves the fluorescent dye from the substrate. RFUs were collected using the Fluoroskan Ascent System with excitation and emission filters of 485 and 538 nm, respectively. Data were collected each minute for 60 minutes at 37° C. and rates (RFU/min) from 30-50 minutes were calculated for each zinc concentration. Using the uninhibited wells as 100% protease activity, percent of urine proteolytic activity remaining was determined for each concentration of zinc inhibitor (Inhibited Rate/Uninhibited rate* 100)."}, "[4]": {"test_system": "proteolytic activity in the fecal extract", "assay": "Fecal extract protease assay with labeled casein (silk proteins)", "assay_type": "biochemical, infant", "settings": "serial dilutions in 100 mM Tris-HCl pH 8.0, room temperature", "experimental": "Water soluble silk protein (SERICIN, Pentapharm AG, Basel, Switzerland) and hydrolyzed silk (CROSILK 10,000, Croda, Incorporated, Parsippany, N.J.) were individually shown to inhibit proteolytic activity in the fecal extract that has been implicated to contribute to diaper rash. Serial dilutions of the neat protein and hydrolysate were performed with 100 mM Tris-HCl pH 8.0 as the diluent. The silk protein concentrations were determined using a Macro BCA Protein Assay Reagent Kit (Pierce, Rockford, Ill.).\nFecal extract was prepared as described above for the examples of silk protein and zinc compositions. […] The reaction was initiated with the addition of 100 μL of the 2 μg/ml fecal extract. […] The reaction was run for 30 min. at room temperature and rates (RFU/min) from 10-20 minutes were calculated."}}, "data": [{"compound": "O.O.O.O.O.O.O.O=S(=O)([O-])[O-].[Zn+2]", "note": "[zinc sulfate heptahydrate]", "values": [{"measurement": "inhibition of casein hydrolysis by fecal extract (FIG. 9)", "setting": "[1]", "value": "effectively inhibited the hydrolysis of casein by the fecal extract in a dose-dependent manner"}, {"measurement": "inhibition of fecal extract activity on EpiDerm, concentration series (FIG. 12)", "setting": "[2]; 0, 25, 50, 125 and 250 mM in 2.6 μL aliquot added to 10.4 μL fecal extract", "value": "effectively inhibits the proteolytic activity of fecal extract in a dose-dependent manner"}, {"measurement": "interleukin-1 alpha released into underlying media (FIG. 11)", "setting": "[2]; 250 mM pre-incubated 30 min with fecal extract, relative to FE+water, 8, 12 and 24 hours", "value": "reduced the amount of interleukin-1 alpha released into the underlying media"}, {"measurement": "inhibition of casein hydrolysis by infant urine (FIG. 10)", "setting": "[3]", "value": "effectively inhibited the hydrolysis of casein by infant urine in a dose-dependent manner"}]}, {"compound": "SERICIN", "values": [{"measurement": "fecal proteolytic activity (FIG. 13)", "setting": "[4]", "value": "reduction of proteolytic activity with increasing concentrations"}]}]}
